Assay results published in BindingDB's records for doi:10.1016/j.bmcl.2009.03.136 (Central Drug Research Institute, 2009).

Assay: Inhibition of rat intestinal alpha-glucosidase

Structure (SMILES): COc1ccc(C=CC(=O)C[C@@H]2O[C@H](CO)[C@@H](O)[C@H](O)[C@H]2O)cc1OC [(E)-4-(3,4-dimethoxyphenyl)-1-((2S,3R,4R,5S,6R)-3,4,5-trihydroxy-6-(hydroxymethyl)tetrahydro-2H-pyran-2-yl)but-3-en-2-one]
- IC50: 51.5 µM
